Entries after “also recorded” stand apart in the source; their conditions may differ.
Experiments:
α-1,4-glucan lyase [1] = experiment: Reaction mode: complete degradation of substrates by the lyase and final products; format: biochemical, Gracilariopsis lemaneiformis; conditions: for time needed for a complete degradation: enzyme 6 μg protein per ml, 30° C.
Experimental: In an enzyme concentration of 6 μg protein per ml, at 30° C., the time needed for a complete degradation of 1% maltose solution was 1 h, for 2% maltose solution, 3 h, for 5% maltose solution, 10-24 h, for 2% maltoheptaose, 10-24 h. This is in sharp contrast to many polysaccharides' depolymerization enzymes, whose reaction stops with the accumulation of products or with the decrease in substrate size.
When maltoheptaose was used as a substrate, the final products are 1,5-anhydrofructose and glucose and their ratio is 6:1. The intermediate products are a mixture of maltosaccharides with a DP number between 2-6 during the process of the reaction. With the increase of reaction time, the DP number of the maltosaccharides decreased and finally all the maltosaccharides disappeared. When maltose was used as a substrate, the ratio of 1,5-anhydrofructose to glucose was 1:1. With the increase of DP number, the yield of glucose decreased, while the yield of 1,5-anhydrofructose increased. When a linear chain of a α-1,4-glucan is long enough, the yield of 1,5-anhydrofructose can be nearly 100%.

α-1,4-glucan lyase [2] = experiment: Inhibition studies of α-1,4-glucan lyase activity; format: biochemical, Gracilariopsis lemaneiformis; conditions: for inhibition of enzymic activity: 0.1M; for inhibition of the degradation of maltose: 3 mg/ml polysaccharide
Experimental: (§1) The reaction mixture for the assay of α-1,4-glucan lyase was composed of 240 μl 62.5 mM Mops-NaOH containing 6 mg soluble starch (pH 6.2), the enzyme preparation and distilled water to a final volume of 300 μl. The reaction was carried out at 30° C. for 10-30 min. Liberated 1,5-anhydrofructose was determined by monitoring the absorbance at 546 nm after the addition of 3,5-dinitrosalicylic acid reagent. Soluble starch in the reaction mixture may be replaced by other substrates and the final substrate concentration may be varied as indicated in the text. The reaction time and enzyme concentration used in enzyme activity assay have been chosen to ensure the linearity of the reaction rate. One unit of α-1,4-glucan lyase activity is defined as the amount of enzyme which liberates 1μmol of 1,5-anhydrofructose min^-1 under the conditions described above.

α-1,4-glucan lyase [3] = experiment: Substrate specificity of α-1,4-glucan lyase (release of 1,5-anhydrofructose, DNS method, 15 min); format: biochemical, Gracilariopsis lemaneiformis; conditions: for substrate inhibition: higher substrate concentrations, 10 mg ml^-1 compared with 2 and 4 mg ml^-1
Experimental: When amylopectin was used as a substrate, the activity reached maximum 8 mg ml^-1 and then decreased slightly at 20 mg ml^-1. The same results were obtained with soluble starch and maltoheptaose. When maltotriose and maltose were used as substrates, the activity reached maximum at 2 mg ml^-1 and 6 mg ml^-1, respectively. Substrate inhibition became evident at higher concentrations, especially in the case of maltotriose. […] Generally, the inhibition degree decreased with the increase in DP number (Degree of Polymerization). When the activity measured at 10 mg ml^-1 was compared at 2 mg ml^-1 and 4 mg ml^-1, substrate inhibition could be clearly seen among the maltosaccharides of DP 3-5. In maltohexaose, the substrate inhibition was very low and was none in maltoheptaose. Among the maltosaccharides, maltotetraose and maltopentaose were the poorest substrates.
With PNPG1 (p-nitrophenyl-α-D-glucoside), the artificial substrate of α-glucosidase, reaction rate was the lowest.
Substrate Specificity of α-1,4-Glucan lyase.
The concentration of various substrates in the reaction mixture
was 10 mg ml^-1 except PNPG1, PNPG2, PNPG7, which was 2 mM.
The incubation time was 15 min. The degrading rate of maltoheptaose
was 84 μmol min^-1. mg^-1 protein.
as §1

α-1,4-glucan lyase [4] = experiment: Elution of α-1,4-glucan lyase from the starch column by glucans; format: binding, Gracilariopsis lemaneiformis; conditions: glucan 8 mg ml^-1; column 1 ml, 5 ml eluate; recovery with amylopectin = 100%
Experimental: In these experiments, as much as 5 times of the column volume was collected. At high pH, for example, 50 mM bicine-NaOH (pH 8.2), the binding of the enzyme onto the starch column was loose and it was eluted by subsequent washing with the same buffer. Neither ConA-Sepharose nor cycloheptaamylose-Sepharose 6B was effective for the purification of the enzyme because of low recovery.
The efficiency of various glucans (8 mg ml^-1) on the elution of
α-1,4-glucan lyase from the starch column. The column volume
was 1 ml and 5 ml eluate was pooled. The recovery of
α-1,4-glucan lyase eluted by amylopectin was used as 100%.
Gracilariopsis lemaneiformis (originally collected from China), 30 g, was sampled directly from the culture cylinder and was rinsed briefly with deionized water and blotted dry with paper tissue. The following operations were carried out at 0°-4° C. The thalli were cut to pieces with scissors and pulverized under liquid nitrogen. To 1 g alga powder was added 3 volumes of buffer A (50 mM citrate-NaOH, pH 6.6), filtered through two-layer cloth and centrifuged at 36,600×g for 10 min. The supernatant (cell-free extract) was loaded onto a starch column (4.1×1.5 cm) pre-equilibrated with buffer A. After loading, the column was extensively washed with 4 volumes of buffer A, volumes of buffer A containing 1M NaCl, 1 volume of buffer A, 1 volume of buffer B (50 mM imidazole-HCl, pH 6.6) in a flow speed of 24 ml h^-1. α-1,4-Glucan lyase was eluted with buffer B containing 10 mg ml^-1 amylopectin in a fraction size of 3.5 ml. To separate α-1,4-glucan lyase from the amylopectin, the active fractions of the eluate were pooled and applied onto a Q-Sepharose column (2.6×5 cm). The column was pre-equilibrated and later washed with buffer B. α-1,4-Glucan lyase was eluted with buffer B containing 0.7M NaCl. Active fractions were pooled and concentrated on a Centriprep CP30 (Amicon, USA) with a molecule weight cutoff of 30,000 and applied to a Sephacryl S-200 column (2.6×80 cm) pre-equilibrated and eluted with buffer A containing 0.2M NaCl. The flow speed was 60 ml h^-1 with a fraction size of 3.5 ml per tube. Active fractions were collected and concentrated again by using centriprep CP30.

α-1,4-glucan lyase [5] = experiment: Substrate specificity of α-1,4-glucan lyase, long term incubation (24 h), continuation of Table IV; format: biochemical, Gracilariopsis lemaneiformis
Experimental: The incubation time was 24 h.
as §1

[6] = substrate 10 mg ml^-1, incubation 15 min
[7] = substrate 2 mM, incubation 15 min

Q: Which “conversion of monosaccharide to 1,5-anhydrofructose by the lyase” value (α-1,4-glucan lyase [1]) does the source give for `OC[C@H]1OC(O)[C@H](O)[C@@H](O)[C@H]1O` (stereo partly drawn) [galactose] here?
A: can not convert

Q: What about the “inhibition of enzymic activity” value (α-1,4-glucan lyase [2]; amylopectin as substrate) of the same compound?
A: no inhibition

Q: What about the “inhibition of enzymic activity” value (α-1,4-glucan lyase [2]; maltose as substrate) of the same compound?
A: no inhibition

Q: How did the “substrate concentration at which the activity reached maximum” value (α-1,4-glucan lyase [3]) turn out when amylopectin was run?
A: 8 mg/mL

Q: What about the “Activity (% of Maltoheptaose)” value (α-1,4-glucan lyase [3]; [6]) of the same compound?
A: 94.1%

Q: What about the “Elution Efficiency” value (α-1,4-glucan lyase [4]) of the same compound?
A: 100%

Q: What about the “inhibition of the degradation of maltose” value (α-1,4-glucan lyase [2]; maltose as substrate) of the same compound?
A: around 67%

Q: What about the type of inhibition (α-1,4-glucan lyase [2]; maltose as substrate) of the same compound?
A: mixed competive/non-competive

Q: And the “inhibition of the algal enzyme (in words)” value (α-1,4-glucan lyase [2]; summary statement, maltose as substrate)?
A: inhibited

Q: What does the source list for `OC[C@H]1OC(O)[C@@H](O)[C@@H](O)[C@@H]1O` (stereo partly drawn) [mannose]?
A: conversion of monosaccharide to 1,5-anhydrofructose by the lyase (α-1,4-glucan lyase [1]): can not convert; inhibition of enzymic activity (α-1,4-glucan lyase [2]; amylopectin as substrate): no inhibition; inhibition of enzymic activity (α-1,4-glucan lyase [2]; maltose as substrate): no inhibition

Q: Which “Elution Efficiency” value (α-1,4-glucan lyase [4]) does the source give for pullulan here?
A: 32.3%

Q: And the “activity of the lyase with the substrate (in words)” value (α-1,4-glucan lyase [5]; long term incubation at 30° C.)?
A: no detectable activity; also recorded: little or no activity

Q: And the Product released (α-1,4-glucan lyase [5]; substrate 4 mg ml^-1, 1.64 μg enzyme, 24 h)?
A: 0 nmol

Q: And the “inhibition of the degradation of maltose” value (α-1,4-glucan lyase [2]; maltose as substrate)?
A: did not inhibit

Q: `OC[C@H]1O[C@H](O[C@H]2[C@H](O)[C@@H](O)[C@@H](O[C@H]3[C@H](O)[C@@H](O)[C@@H](O[C@H]4[C@H](O)[C@@H](O)C(O)O[C@@H]4CO)O[C@@H]3CO)O[C@@H]2CO)[C@H](O)[C@@H](O)[C@@H]1O` (stereo partly drawn) [Maltotetraose, maltotetraose] was tested. Which substrate inhibition (α-1,4-glucan lyase [3]) did it give?
A: showed substrate inhibition

Q: And the “Activity (% of Maltoheptaose)” value (α-1,4-glucan lyase [3]; [6])?
A: 27.8%

Q: And the “Elution Efficiency” value (α-1,4-glucan lyase [4])?
A: 65.7%

Q: `O=C(CO)[C@@H](O)[C@H](O)[C@H](O)CO` [fructose] was tested. Which “conversion of monosaccharide to 1,5-anhydrofructose by the lyase” value (α-1,4-glucan lyase [1]) did it give?
A: can not convert

Q: What about the “inhibition of enzymic activity” value (α-1,4-glucan lyase [2]; amylopectin as substrate) of the same compound?
A: no inhibition

Q: What about the “inhibition of enzymic activity” value (α-1,4-glucan lyase [2]; maltose as substrate) of the same compound?
A: no inhibition

Q: For `OC[C@H]1O[C@H](O[C@H]2[C@H](O)[C@@H](O)[C@@H](O[C@H]3[C@H](O)[C@@H](O)[C@@H](O[C@H]4[C@H](O)[C@@H](O)[C@@H](O[C@H]5[C@H](O)[C@@H](O)C(O)O[C@@H]5CO)O[C@@H]4CO)O[C@@H]3CO)O[C@@H]2CO)[C@H](O)[C@@H](O)[C@@H]1O` (stereo partly drawn) [Maltopentaose, maltopentaose], which substrate inhibition (α-1,4-glucan lyase [3]) is on record?
A: showed substrate inhibition

Q: What about the “Activity (% of Maltoheptaose)” value (α-1,4-glucan lyase [3]; [6]) of the same compound?
A: 36.6%

Q: With glycogen as the compound, how does the “Activity (% of Maltoheptaose)” value (α-1,4-glucan lyase [3]; [6]) read?
A: 77.6%

Q: And the “Elution Efficiency” value (α-1,4-glucan lyase [4])?
A: 87.1%

Q: And the “inhibition of the degradation of maltose” value (α-1,4-glucan lyase [2]; maltose as substrate)?
A: ~47%

Q: With `OC[C@H]1O[C@H](O[C@H]2[C@H](O)[C@@H](O)[C@@H](O[C@H]3[C@H](O)[C@@H](O)C(O)O[C@@H]3CO)O[C@@H]2CO)[C@H](O)[C@@H](O)[C@@H]1O` (stereo partly drawn) [Maltotriose, maltotriose] as the compound, how does the “substrate concentration at which the activity reached maximum” value (α-1,4-glucan lyase [3]) read?
A: 2 mg/mL

Q: What about the substrate inhibition (α-1,4-glucan lyase [3]) of the same compound?
A: showed substrate inhibition

Q: What about the “Activity (% of Maltoheptaose)” value (α-1,4-glucan lyase [3]; [6]) of the same compound?
A: 39.1%

Q: What does the source list for `OC[C@H]1O[C@H](O[C@H]2[C@H](O)[C@@H](O)[C@H](O)O[C@@H]2CO)[C@H](O)[C@@H](O)[C@@H]1O` [Maltose, maltose]?
A: substrate concentration at which the activity reached maximum (α-1,4-glucan lyase [3]): 6 mg/mL; substrate inhibition (α-1,4-glucan lyase [3]): showed substrate inhibition; Activity (% of Maltoheptaose) (α-1,4-glucan lyase [3]; [6]): 66.7%; Elution Efficiency (α-1,4-glucan lyase [4]): 56.4%; time needed for a complete degradation (α-1,4-glucan lyase [1]; 1% solution): 1 h; time needed for a complete degradation (α-1,4-glucan lyase [1]; 2% maltose solution): 3 h; time needed for a complete degradation (α-1,4-glucan lyase [1]; 5% solution): 10 to 24 h

Q: Which “Activity (% of Maltoheptaose)” value (α-1,4-glucan lyase [3]; [6]) does the source give for β-limit dextrin here?
A: 22.7%

Q: For `O=[N+]([O-])c1ccc(O[C@H]2O[C@H](CO)[C@@H](O[C@H]3O[C@H](CO)[C@@H](O)[C@H](O)[C@H]3O)[C@H](O)[C@H]2O)cc1` [PNPG2, p-nitrophenyl-α-D-maltoside], which “Activity (% of Maltoheptaose)” value (α-1,4-glucan lyase [3]; [7]) is on record?
A: 22.5%

Q: How did the substrate inhibition (α-1,4-glucan lyase [3]) turn out when `OC[C@H]1O[C@H](O[C@H]2[C@H](O)[C@@H](O)[C@@H](O[C@H]3[C@H](O)[C@@H](O)[C@@H](O[C@H]4[C@H](O)[C@@H](O)[C@@H](O[C@H]5[C@H](O)[C@@H](O)[C@@H](O[C@H]6[C@H](O)[C@@H](O)[C@@H](O[C@H]7[C@H](O)[C@@H](O)C(O)O[C@@H]7CO)O[C@@H]6CO)O[C@@H]5CO)O[C@@H]4CO)O[C@@H]3CO)O[C@@H]2CO)[C@H](O)[C@@H](O)[C@@H]1O` (stereo partly drawn) [Maltoheptaose, maltoheptaose] was run?
A: none

Q: And the “Activity (% of Maltoheptaose)” value (α-1,4-glucan lyase [3]; [6])?
A: 100.0%

Q: What about the degrading rate (α-1,4-glucan lyase [3]; [6]) of the same compound?
A: 84 μmol min^-1. mg^-1 protein

Q: And the “Elution Efficiency” value (α-1,4-glucan lyase [4])?
A: 94.3%

Q: What about the “time needed for a complete degradation” value (α-1,4-glucan lyase [1]; 2% maltoheptaose) of the same compound?
A: 10 to 24 h

Q: Which “Activity (% of Maltoheptaose)” value (α-1,4-glucan lyase [3]; [7]) does the source give for `O=[N+]([O-])c1ccc(O[C@H]2O[C@H](CO)[C@@H](O)[C@H](O)[C@H]2O)cc1` [PNPG1, p-nitrophenyl-α-D-glucoside] here?
A: 0.113%

Q: For soluble starch, which “Activity (% of Maltoheptaose)” value (α-1,4-glucan lyase [3]; [6]) is on record?
A: 100.2%

Q: Which results are given for `OC[C@H]1OC(O)[C@H](O)[C@@H](O)[C@@H]1O` (stereo partly drawn) [Glucose, glucose]?
A: Elution Efficiency (α-1,4-glucan lyase [4]): 0%; conversion of monosaccharide to 1,5-anhydrofructose by the lyase (α-1,4-glucan lyase [1]): can not convert; inhibition of enzymic activity (α-1,4-glucan lyase [2]; amylopectin as substrate): no inhibition; inhibition of enzymic activity (α-1,4-glucan lyase [2]; maltose as substrate): around 22%; product inhibition: effect on enzyme reaction rate (α-1,4-glucan lyase [2]; products accumulating during the enzyme reaction): negligible effect

From patent US5695970A, “Glucan lyase producing 1,5-anhydrofructose” (priority 1992, dated 1997)
